Measured values taken from PMC9587031, “Antibiotic polymyxin arranges lipopolysaccharide into crystalline structures to solidify the bacterial membrane” (Nature Communications, 2022).
Converted amounts (≈) assume the structure as drawn. Positions of bridges follow the written chain, without caps; N, C: chain ends. Non-standard residues stand in square brackets, D forms with d. Residues, ends and D or L forms follow the SMILES beside them. *: point of attachment. Heptanoyl(6-Me) = CC(C)CCCCC(=O)*; Dab = NCC[C@H](N)C(=O)O

Legend:
[1] = test system: E. coli MG1655 WT; experiment: MIC, automated multi-well growth assay; format: cell-based, Escherichia coli; conditions: for MIC: MG1655, 10 h
Procedure: All titration assays to measure the growth curve of E. coli MG1655 strains at different polymyxin concentrations were performed on a Tecan EVO 200 robotic platform in 96-well plates (cell culture microplates 96 well µClear® CELLSTAR®, Greiner Bio-One GmbH). Plates with serial dilutions of the tested polymyxin derivatives were prepared and overnight cultures of the strains were combined to a final OD600 ≈ 0.05. Titration culture plates were placed in a shaking platform equipped with a Kuhner ES-X shaking module (Adolf Kühner AG) mounted inside an aluminum housing (Tecan) and temperature-controlled using an “Icecube” (Life Imaging Services). Titration cultures were grown for 10 h at 37 °C with shaking at 300 rpm in clear-bottom 96-well plates, which were sealed with peelable foil with small slits (Agilent) to prevent liquid evaporation and guarantee sterility. OD600 measurements were recorded using a Tecan Infinite M200 Pro plater reader.

[2] = test system: OM patches from E. coli MG1655 WT strain; experiment: AFM imaging of crystalline structure formation on OM patches; set-up: species or system Escherichia coli; conditions: DPBS supplemented with 5 mM Mg2+ (MgCl2)
Procedure: E. coli MG1655 strains were transformed with the pY200 plasmid that carries an mCherry gene preceded by the periplasmic export signal of the skp protein under control of the lux promoter. This construct enables over-expression of mCherry into the periplasmic space, which in turn increases the OMV production. Cultures were grown in LB medium (Difco) with 50 µg/ml spectinomycin (Fischer Scientific) at 37 °C. Expression of mCherry was induced at an OD600 ≈ 0.4 by N-(β ketocaproyl)-L-homoserine lactone (HSL, Cayman Chemical). After induction, the cultures were grown until they reached the early stationary phase, and bacteria were removed by centrifugation at 10,000 g for 10 min. […]
OMVs produced from different E. coli MG1655 strains were adsorbed onto freshly cleaved mica for 15 min in DPBS buffer at room temperature. […] The images were recorded using two different AFM cantilevers: PEAKFORCE‐HiRs‐F‐A (Bruker) with a nominal spring constant of 0.4 N/m, a resonance frequency of ≈ 165 kHz in liquid, and a sharpened silicon tip with a nominal radius of ≈ 1 nm or SCANASYST-FLUID + (Bruker) with a nominal spring constant of 0.7 N/m, a resonance frequency of ≈ 150 kHz in liquid, and a sharpened silicon tip with a nominal radius of ≈ 2 nm. […] Images were recorded at 2 kHz oscillation frequency, by applying an imaging force of 100–120 pN with a vertical amplitude of 30 nm. […]

[3] = test system: E. coli K-12 MG1655 carrying pAH213_mcr1; experiment: Colistin MIC, validation of plasmid pAH213_mcr1; format: cell-based, Escherichia coli
Excerpt: (§1) In order to confer colistin resistance to the E. coli K-12 MG1655 strain and derivatives, an mcr-1 gene together with its native promoter region was cloned onto the pBR322 plasmid backbone, creating pAH213_mcr1. Briefly, the mcr-1 gene of colistin-resistant E. coli strain 2 HS-C was identified as gene E4F32_22195 on plasmid p2HS-C-1 (GenBank CP038181.1) and amplified together with ≈ 400 nucleotides of its immediate upstream region using primers prAH2159 and prAH2160. The backbone of pBR322 without its tetracycline resistance cassette was amplified using primers prAH1981 and prAH1982. Using 25 bp overhangs to the backbone included in prAH2159 / prAH2160, insert and backbone were ligated using Gibson assembly. The resulting plasmid pAH213_mcr1 confers colistin resistance to the E. coli K-12 MG1655 strain with a minimal inhibitory concentration of 5 µg/ml (empty vector and vector-free controls: 0.5 µg/ml). Robust growth of the E. coli K-12 MG1655 strains carrying pAH213_mcr1 was observed up to a concentration of 3 µg/ml. The plasmids were transferred to the cells using the transformation and storage solution (TSS) method.

[4] = test system: E. coli MG1655 MCR-1; experiment: MIC, automated multi-well growth assay; format: cell-based, Escherichia coli; conditions: E. coli MG1655 containing the MCR-1 plasmid, growth curves (Fig. 1b)
Excerpt: as §1, with “The plasmids were transferred to the cells using the transformation and storage solution (TSS) method.” left out
All titration assays to measure the growth curve of E. coli MG1655 strains at different polymyxin concentrations were performed on a Tecan EVO 200 robotic platform in 96-well plates (cell culture microplates 96 well µClear® CELLSTAR®, Greiner Bio-One GmbH). […] OD600 measurements were recorded using a Tecan Infinite M200 Pro plater reader.

[5] = test system: E. coli K-12 MG1655 empty vector and vector-free controls; experiment: Colistin MIC, validation of plasmid pAH213_mcr1, controls; format: cell-based, Escherichia coli
Excerpt: as §1

Row | MIC [1] | Compound | polymyxin E concentration at which crystalline structures formed [2] | concentration up to which robust growth was observed ([3]; E. coli K-12 MG1655 strains carrying pAH213_mcr1) | minimal inhibitory concentration ([3]; E. coli K-12 MG1655 with plasmid pAH213_mcr1) | MIC from bacterial growth curves ([1]; E. coli K-12 MG1655 WT, growth curves with increasing antibiotic concentration (Fig. 1b)) | polymyxin E concentration in which the strain was able to grow [4] | minimal inhibitory concentration [5]
1 | 8 µg/mL (≈ 7.77 µM) | CC(C)C[C@@H]1NC(=O)[C@@H](CC(C)C)NC(=O)[C@H](CCN)NC(=O)[C@@H](NC(=O)[C@H](CCN)NC(=O)[C@@H](NC(=O)[C@@H](N)CCN)[C@@H](C)O)CCNC(=O)[C@H]([C@@H](C)O)NC(=O)[C@H](CCN)NC(=O)[C@H](CCN)NC1=O [Polymyxin E intermediate-length] (H-[Dab]T[Dab][Dab][Dab][dL]L[Dab][Dab]T; lactam 4-C) | – | – | – | – | – | –
2 | 32 µg/mL (≈ 27.7 µM) | CC(C)CCCCC(=O)N[C@@H](CCN)C(=O)N[C@H](C(=O)N[C@@H](CCN)C(=O)N[C@H]1CCNC(=O)[C@@H]([C@H](C)O)NC(=O)[C@H](CCN)NC(=O)[C@H](CCN)NC(=O)[C@H](CC(C)C)NC(=O)[C@@H](CC(C)C)NC(=O)[C@H](CCN)NC1=O)[C@@H](C)O [Polymyxin E with stereochemistry change] ({Heptanoyl(6-Me)}-[Dab]T[Dab][Dab][Dab][dL]L[Dab][Dab][dT]; lactam 4-C) | – | – | – | – | – | –
3 | – | Polymyxin E | 1.2 mg/L | ≤ 3 µg/mL | 5 µg/mL | 0.5 to 1 µg/mL | 32 mg/L | 0.5 µg/mL
